Experimental data as given in patent US20090186949A1, “Method for Treating Endothelial and Epithelial Cell Disorders by Administering High Molecular Weight PEG-Like Compounds” (THE UNIVERSITY OF CHICAGO, priority 2006, published 2009).

Tests used:
[1] = test system: PA-I lectin/adhesin expression in P. aeruginosa; assay type: cell-based, Pseudomonas aeruginosa
[2] = test system: P. aeruginosa PAO1 and 27853; assay type: cell-based, Pseudomonas aeruginosa
[3] = test system: human pulmonary artery endothelial cells (HPAEC); experiment: Reversal of thrombin- or LPS-induced barrier disruption (TEER); assay type: cell-based; settings: LPS
Endothelial cells [4] = test system: Endothelial cells
[5] = test system: human lung microvessel endothelial cells (HLMVEC); experiment: Transendothelial electrical resistance (TEER) by ECIS, HMW PEG in serum-free EBM; assay type: cell-based; settings: TEER
[6] = test system: ERK and MLC phosphorylation; experiment: ERK and MLC phosphorylation by Western blot; assay type: cell-based, human; settings: 1 μM S1P, 5 minutes
HPAECs = experiment: Intracellular calcium (Fura-2); assay type: cell-based, human; settings: 1 U/ml thrombin; 1 μM S1P
Endothelial cells [7] = experiment: Pretreatment of endothelial cells followed by S1P or HMW PEG challenge (TEER); assay type: cell-based; settings: challenge 1 μM S1P or 8% HMW PEG

C=CCN1C[C@H](C)N([C@H](c2ccc(C(=O)N(CC)CC)cc2)c2cccc(O)c2)C[C@H]1C [BW373U86]
PA-I protein (immunoblot) [1]: induced PA-I protein to the same degree as C4-HSL | biofilm production [2]: especially increased with the δ agonist

lipopolysaccharide [LPS]
duration of decrease in barrier resistance [3]: over 20 hours

High Molecular Weight PolyEthylene Glycol [HMW PEG]
exotoxin A-induced cytotoxicity (Endothelial cells [4]): completely protected

CCCCCCCCCCCCC/C=C/[C@@H](O)[C@@H](N)COP(=O)(O)O [S1P, sphingosine 1-phosphate]
time to maximum barrier enhancing effect [5]: 10 to 15 min | increase in resistance (maximum barrier enhancing effect) ([5]; human pulmonary microvessel EC): 40% | ERK phosphorylation [6]: drastic increase in ERK phosphorylation | intracellular calcium on stimulation of ECs (HPAECs): induced intracellular calcium spikes | effect of PMA pretreatment on the response to stimulation (Endothelial cells [7]; pretreated 100 nM PMA 24 hours): Blocked | effect of PTX pretreatment on the response to stimulation (Endothelial cells [7]; pretreated 100 ng/ml PTX 4 hours): Blocked | effect of S1P pretreatment on the response to stimulation (Endothelial cells [7]; pretreated 1 μM S1P 24 hours): No effect | effect of FTY720 pretreatment on the response to stimulation (Endothelial cells [7]; pretreated 10 μM FTY720 24 hours): Blunted | effect of FTY analog pretreatment on the response to stimulation (Endothelial cells [7]; pretreated 10 μM FTY analog 24 hours): Blunted
